Measured values from patent US10351575B2, “Bicyclic urea, thiourea, guanidine and cyanoguanidine compounds useful for the treatment of pain” (Array BioPharma Inc., priority 2012, dated 2019).

What was measured:
[1] = molecular target: His-tagged recombinant human TrkA (Homo sapiens (Human), UniProt P04629); assay: TrkA LanthaScreen Eu Kinase Binding Assay; settings: averaged IC50; TR-FRET binding, 60 min, 22° C.; read-out: TrkA Enzyme IC50
Summary of the method: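 Three-fold compound dilutions (2% DMSO final) were incubated 60 min at 22° C. with 5 nM His-TrkA cytoplasmic domain, tracer 236 (4 nM), biotinylated anti-His (2 nM) and europium streptavidin (2 nM) in MOPS pH 7.5 buffer. Emission ratio 665/615 gave percent of control; four-parameter fit yielded IC50.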

MAP4K2 = MAP4K2 (Homo sapiens (Human), UniProt Q12851); assay: KinaseProfiler off-target kinase profiling; format: biochemical; settings: 10 μM, ATP near Km
Experimental: (§1) Representative compounds (Examples 12, 32, 26 and 2) of the invention were tested for off-target kinase activity at a concentration of 10 μM by Millipore, Inc. in their KinaseProfiler™ service against all the kinases available in their full kinase panel. Compounds were run in duplicate at a concentration of ATP near the Km for each individual kinase according to Millipore's specifications. The results are shown in Table B. Data are reported as percent of control (POC) and are the average of the two replicates.

NEK7 = NEK7 (Homo sapiens (Human), UniProt Q8TDX7); assay: KinaseProfiler off-target kinase profiling; format: biochemical; settings: 10 μM, ATP near Km
Experimental: as §1

ErbB4 = ErbB4 (Homo sapiens (Human), UniProt Q15303); assay: KinaseProfiler off-target kinase profiling; format: biochemical; settings: 10 μM, ATP near Km
Experimental: as §1

SRPK2 = SRPK2 (Homo sapiens (Human), UniProt P78362); assay: KinaseProfiler off-target kinase profiling; format: biochemical; settings: 10 μM, ATP near Km
Experimental: as §1

CHK2 = CHK2 (Homo sapiens (Human), UniProt O96017); assay: KinaseProfiler off-target kinase profiling; format: biochemical; settings: 10 μM, ATP near Km
Experimental: as §1

MEK1 = MEK1 (Homo sapiens (Human), UniProt Q02750); assay: KinaseProfiler off-target kinase profiling; format: biochemical; settings: 10 μM, ATP near Km
Experimental: as §1

FGFR4 = FGFR4 (Homo sapiens (Human), UniProt P22455); assay: KinaseProfiler off-target kinase profiling; format: biochemical; settings: 10 μM, ATP near Km
Experimental: as §1

MAPKAP-K2 = MAPKAP-K2 (Homo sapiens (Human), UniProt P49137); assay: KinaseProfiler off-target kinase profiling; format: biochemical; settings: 10 μM, ATP near Km
Experimental: as §1

NLK = NLK (Homo sapiens (Human), UniProt Q9UBE8); assay: KinaseProfiler off-target kinase profiling; format: biochemical; settings: 10 μM, ATP near Km
Experimental: as §1

CAMK2d = CAMK2d (Homo sapiens (Human), UniProt Q13557); assay: KinaseProfiler off-target kinase profiling; format: biochemical; settings: 10 μM, ATP near Km
Experimental: as §1

Mer = Mer (Homo sapiens (Human), UniProt Q12866); assay: KinaseProfiler off-target kinase profiling; format: biochemical; settings: 10 μM, ATP near Km
Experimental: as §1

IKKalpha = IKKalpha (Homo sapiens (Human), UniProt O15111); assay: KinaseProfiler off-target kinase profiling; format: biochemical; settings: 10 μM, ATP near Km
Experimental: as §1

KIT = KIT (Homo sapiens (Human), UniProt P10721); assay: KinaseProfiler off-target kinase profiling; format: biochemical; settings: 10 μM, ATP near Km
Experimental: as §1

MuSK = MuSK (Homo sapiens (Human), UniProt O15146); assay: KinaseProfiler off-target kinase profiling; format: biochemical; settings: 10 μM, ATP near Km
Experimental: as §1

CAMK4 = CAMK4 (Homo sapiens (Human), UniProt Q16566); assay: KinaseProfiler off-target kinase profiling; format: biochemical; settings: 10 μM, ATP near Km
Experimental: as §1

STK33 = STK33 (Homo sapiens (Human), UniProt Q9BYT3); assay: KinaseProfiler off-target kinase profiling; format: biochemical; settings: 10 μM, ATP near Km
Experimental: as §1

CK1_y = assay: KinaseProfiler off-target kinase profiling; format: biochemical; settings: 10 μM, ATP near Km
Experimental: as §1

Ros = Ros (Homo sapiens (Human), UniProt P08922); assay: KinaseProfiler off-target kinase profiling; format: biochemical; settings: 10 μM, ATP near Km
Experimental: as §1

MYLK = MYLK (Homo sapiens (Human), UniProt Q15746); assay: KinaseProfiler off-target kinase profiling; format: biochemical; settings: 10 μM, ATP near Km
Experimental: as §1

DCAMKL2 = DCAMKL2 (Homo sapiens (Human), UniProt Q8N568); assay: KinaseProfiler off-target kinase profiling; format: biochemical; settings: 10 μM, ATP near Km
Experimental: as §1

Flt1 = Flt1 (Homo sapiens (Human), UniProt P17948); assay: KinaseProfiler off-target kinase profiling; format: biochemical; settings: 10 μM, ATP near Km
Experimental: as §1

PRKG1beta = PRKG1beta (Homo sapiens (Human), UniProt Q13976); assay: KinaseProfiler off-target kinase profiling; format: biochemical; settings: 10 μM, ATP near Km
Experimental: as §1

CLK3 = CLK3 (Homo sapiens (Human), UniProt P49761); assay: KinaseProfiler off-target kinase profiling; format: biochemical; settings: 10 μM, ATP near Km
Experimental: as §1

MST1 = MST1 (Homo sapiens (Human), UniProt Q13043); assay: KinaseProfiler off-target kinase profiling; format: biochemical; settings: 10 μM, ATP near Km
Experimental: as §1

PTK5 = PTK5 (Homo sapiens (Human), UniProt P42685); assay: KinaseProfiler off-target kinase profiling; format: biochemical; settings: 10 μM, ATP near Km
Experimental: as §1

BLK_m = BLK_m (Mus musculus (Mouse), UniProt P16277); assay: KinaseProfiler off-target kinase profiling; format: biochemical; settings: 10 μM, ATP near Km
Experimental: as §1

MSK1 = MSK1 (Homo sapiens (Human), UniProt O75582); assay: KinaseProfiler off-target kinase profiling; format: biochemical; settings: 10 μM, ATP near Km
Experimental: as §1

p38delta = p38delta (Homo sapiens (Human), UniProt O15264); assay: KinaseProfiler off-target kinase profiling; format: biochemical; settings: 10 μM, ATP near Km
Experimental: as §1

TrkB = TrkB (Homo sapiens (Human), UniProt Q16620); assay: KinaseProfiler off-target kinase profiling; format: biochemical; settings: 10 μM, ATP near Km
Experimental: as §1

IRAK4 = IRAK4 (Homo sapiens (Human), UniProt Q9NWZ3); assay: KinaseProfiler off-target kinase profiling; format: biochemical; settings: 10 μM, ATP near Km
Experimental: as §1

Lck = Lck (Homo sapiens (Human), UniProt P06239); assay: KinaseProfiler off-target kinase profiling; format: biochemical; settings: 10 μM, ATP near Km
Experimental: as §1

MST2 = MST2 (Homo sapiens (Human), UniProt Q13188); assay: KinaseProfiler off-target kinase profiling; format: biochemical; settings: 10 μM, ATP near Km
Experimental: as §1

p38delta, sequence (O15264 whole entry): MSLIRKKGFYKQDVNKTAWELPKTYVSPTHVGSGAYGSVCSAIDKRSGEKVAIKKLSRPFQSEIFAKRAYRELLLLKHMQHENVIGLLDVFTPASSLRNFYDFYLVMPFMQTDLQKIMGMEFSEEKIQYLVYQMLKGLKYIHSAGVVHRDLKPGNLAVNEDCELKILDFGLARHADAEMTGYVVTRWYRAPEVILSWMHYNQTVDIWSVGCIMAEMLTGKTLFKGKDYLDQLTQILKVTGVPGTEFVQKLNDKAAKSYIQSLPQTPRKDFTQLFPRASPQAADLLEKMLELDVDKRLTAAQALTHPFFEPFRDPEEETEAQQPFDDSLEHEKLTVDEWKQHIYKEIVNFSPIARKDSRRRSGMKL
MAP4K2, sequence (Q12851 whole entry): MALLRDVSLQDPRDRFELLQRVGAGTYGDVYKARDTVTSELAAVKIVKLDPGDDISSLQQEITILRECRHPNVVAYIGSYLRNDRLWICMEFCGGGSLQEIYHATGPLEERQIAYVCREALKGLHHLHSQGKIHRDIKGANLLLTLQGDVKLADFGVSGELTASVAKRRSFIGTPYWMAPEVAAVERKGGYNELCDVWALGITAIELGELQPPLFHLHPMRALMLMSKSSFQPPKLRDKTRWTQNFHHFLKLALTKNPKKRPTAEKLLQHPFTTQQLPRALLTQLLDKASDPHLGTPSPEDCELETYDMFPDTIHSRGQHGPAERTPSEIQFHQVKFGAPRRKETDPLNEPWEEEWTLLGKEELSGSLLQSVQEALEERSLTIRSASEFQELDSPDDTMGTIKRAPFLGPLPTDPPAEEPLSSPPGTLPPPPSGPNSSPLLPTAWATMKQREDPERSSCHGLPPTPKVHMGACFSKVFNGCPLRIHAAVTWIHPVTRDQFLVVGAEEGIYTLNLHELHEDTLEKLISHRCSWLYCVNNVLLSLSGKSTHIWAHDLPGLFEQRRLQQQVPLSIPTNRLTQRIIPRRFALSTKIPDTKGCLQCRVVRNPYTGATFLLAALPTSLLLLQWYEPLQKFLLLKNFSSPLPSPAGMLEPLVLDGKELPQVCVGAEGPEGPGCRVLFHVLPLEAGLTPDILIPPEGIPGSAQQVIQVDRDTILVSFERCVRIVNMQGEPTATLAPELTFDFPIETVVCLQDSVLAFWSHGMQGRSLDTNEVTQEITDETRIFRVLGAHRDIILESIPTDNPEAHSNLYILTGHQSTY
BLK_m, sequence (P16277 whole entry): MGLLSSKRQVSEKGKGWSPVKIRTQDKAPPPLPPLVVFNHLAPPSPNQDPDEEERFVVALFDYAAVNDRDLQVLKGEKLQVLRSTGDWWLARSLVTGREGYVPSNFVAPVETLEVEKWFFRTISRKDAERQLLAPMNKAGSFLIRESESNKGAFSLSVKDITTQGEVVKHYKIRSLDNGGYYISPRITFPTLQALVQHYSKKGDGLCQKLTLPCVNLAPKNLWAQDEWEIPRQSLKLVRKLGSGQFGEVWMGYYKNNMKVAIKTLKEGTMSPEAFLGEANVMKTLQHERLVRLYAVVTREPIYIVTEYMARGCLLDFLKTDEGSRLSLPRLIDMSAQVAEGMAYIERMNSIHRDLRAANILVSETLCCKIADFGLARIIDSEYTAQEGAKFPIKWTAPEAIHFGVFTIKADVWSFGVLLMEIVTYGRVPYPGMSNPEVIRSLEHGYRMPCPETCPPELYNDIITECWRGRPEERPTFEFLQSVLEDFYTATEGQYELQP
STK33, sequence (Q9BYT3 whole entry): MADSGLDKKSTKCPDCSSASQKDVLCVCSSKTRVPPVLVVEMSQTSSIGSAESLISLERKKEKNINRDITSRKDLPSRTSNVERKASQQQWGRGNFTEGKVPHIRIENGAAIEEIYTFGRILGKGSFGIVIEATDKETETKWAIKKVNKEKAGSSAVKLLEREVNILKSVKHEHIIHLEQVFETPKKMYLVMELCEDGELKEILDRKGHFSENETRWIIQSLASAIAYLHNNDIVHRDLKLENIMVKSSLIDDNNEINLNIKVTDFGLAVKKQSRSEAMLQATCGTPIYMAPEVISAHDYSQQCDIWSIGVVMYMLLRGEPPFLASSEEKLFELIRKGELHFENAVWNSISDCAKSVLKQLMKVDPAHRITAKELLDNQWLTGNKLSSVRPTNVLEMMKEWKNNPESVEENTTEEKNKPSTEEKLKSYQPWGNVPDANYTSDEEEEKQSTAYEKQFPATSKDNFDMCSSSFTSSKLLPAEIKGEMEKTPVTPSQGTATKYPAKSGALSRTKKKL
NLK, sequence (Q9UBE8 whole entry): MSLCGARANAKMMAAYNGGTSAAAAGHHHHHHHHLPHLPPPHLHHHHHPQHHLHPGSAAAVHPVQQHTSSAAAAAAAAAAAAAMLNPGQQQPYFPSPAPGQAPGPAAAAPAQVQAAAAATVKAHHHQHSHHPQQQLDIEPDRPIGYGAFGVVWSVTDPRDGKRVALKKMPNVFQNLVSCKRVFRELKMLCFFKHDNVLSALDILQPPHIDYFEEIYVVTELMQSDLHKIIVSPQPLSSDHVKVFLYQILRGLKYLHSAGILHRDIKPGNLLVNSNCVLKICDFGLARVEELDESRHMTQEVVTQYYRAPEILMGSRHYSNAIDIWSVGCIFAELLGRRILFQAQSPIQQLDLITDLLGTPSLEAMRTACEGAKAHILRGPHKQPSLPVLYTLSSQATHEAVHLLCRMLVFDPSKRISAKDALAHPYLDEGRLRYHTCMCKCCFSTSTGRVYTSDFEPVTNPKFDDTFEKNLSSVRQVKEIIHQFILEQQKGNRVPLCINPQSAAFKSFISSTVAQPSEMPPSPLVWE
MEK1, sequence (Q02750 whole entry): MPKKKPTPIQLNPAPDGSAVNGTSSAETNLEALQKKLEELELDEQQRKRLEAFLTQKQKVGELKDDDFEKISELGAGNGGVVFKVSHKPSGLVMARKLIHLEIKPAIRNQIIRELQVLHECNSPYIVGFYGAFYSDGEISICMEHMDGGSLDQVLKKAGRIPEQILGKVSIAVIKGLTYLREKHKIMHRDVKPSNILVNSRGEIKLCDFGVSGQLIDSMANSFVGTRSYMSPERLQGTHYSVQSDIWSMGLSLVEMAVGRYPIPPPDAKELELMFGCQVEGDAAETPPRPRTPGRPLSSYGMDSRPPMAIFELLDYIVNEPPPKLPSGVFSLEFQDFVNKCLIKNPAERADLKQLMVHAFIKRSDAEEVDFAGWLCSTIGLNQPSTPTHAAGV
CLK3, sequence (P49761 whole entry): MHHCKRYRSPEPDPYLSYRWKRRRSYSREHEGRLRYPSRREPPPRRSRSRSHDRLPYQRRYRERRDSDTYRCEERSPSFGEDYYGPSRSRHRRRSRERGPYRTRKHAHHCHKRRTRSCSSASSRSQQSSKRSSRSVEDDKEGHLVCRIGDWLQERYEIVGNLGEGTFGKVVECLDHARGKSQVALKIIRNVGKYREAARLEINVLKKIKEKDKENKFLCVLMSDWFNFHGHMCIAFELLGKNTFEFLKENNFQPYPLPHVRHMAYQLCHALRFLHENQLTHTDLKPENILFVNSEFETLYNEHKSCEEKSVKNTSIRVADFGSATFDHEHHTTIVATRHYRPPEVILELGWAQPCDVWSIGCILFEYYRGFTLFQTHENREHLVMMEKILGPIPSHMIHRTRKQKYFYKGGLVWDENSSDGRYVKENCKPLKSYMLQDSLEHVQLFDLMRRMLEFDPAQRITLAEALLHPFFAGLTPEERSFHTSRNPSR
PRKG1beta, sequence (Q13976 other isoform, or with tags, fused parts or gaps): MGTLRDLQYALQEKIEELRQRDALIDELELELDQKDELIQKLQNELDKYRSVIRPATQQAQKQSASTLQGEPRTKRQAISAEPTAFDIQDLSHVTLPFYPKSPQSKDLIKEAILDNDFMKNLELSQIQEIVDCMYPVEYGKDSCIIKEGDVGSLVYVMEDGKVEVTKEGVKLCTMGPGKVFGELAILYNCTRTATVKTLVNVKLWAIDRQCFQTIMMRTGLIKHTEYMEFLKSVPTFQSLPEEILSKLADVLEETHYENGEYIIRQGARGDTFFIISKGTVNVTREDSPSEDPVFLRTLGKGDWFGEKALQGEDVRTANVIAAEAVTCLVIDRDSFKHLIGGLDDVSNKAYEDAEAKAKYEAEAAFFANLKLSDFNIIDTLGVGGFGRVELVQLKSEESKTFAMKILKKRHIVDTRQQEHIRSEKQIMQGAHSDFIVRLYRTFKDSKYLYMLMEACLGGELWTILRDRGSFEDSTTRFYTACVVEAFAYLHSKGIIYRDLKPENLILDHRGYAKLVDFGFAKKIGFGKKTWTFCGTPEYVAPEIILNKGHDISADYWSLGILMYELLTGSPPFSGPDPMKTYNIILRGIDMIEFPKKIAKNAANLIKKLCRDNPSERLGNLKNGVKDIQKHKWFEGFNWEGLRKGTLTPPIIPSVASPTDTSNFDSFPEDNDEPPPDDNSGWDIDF
PTK5, sequence (P42685 whole entry): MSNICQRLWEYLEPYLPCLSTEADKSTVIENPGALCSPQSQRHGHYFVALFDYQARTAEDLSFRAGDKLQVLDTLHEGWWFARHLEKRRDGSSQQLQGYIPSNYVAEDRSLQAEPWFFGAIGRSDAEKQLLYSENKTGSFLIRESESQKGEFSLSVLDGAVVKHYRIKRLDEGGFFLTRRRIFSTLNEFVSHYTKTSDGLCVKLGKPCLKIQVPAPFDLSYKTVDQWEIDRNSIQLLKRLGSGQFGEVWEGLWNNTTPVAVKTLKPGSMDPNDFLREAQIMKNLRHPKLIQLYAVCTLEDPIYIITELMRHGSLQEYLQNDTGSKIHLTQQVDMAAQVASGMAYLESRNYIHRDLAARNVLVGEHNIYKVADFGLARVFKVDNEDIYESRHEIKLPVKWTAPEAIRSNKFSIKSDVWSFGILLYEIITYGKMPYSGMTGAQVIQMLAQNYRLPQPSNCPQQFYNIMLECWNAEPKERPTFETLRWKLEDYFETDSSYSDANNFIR

Avg. POC (MAP4K2) [POC]	Avg. POC (NEK7) [POC]	Avg. POC (ErbB4) [POC]	Avg. POC (SRPK2) [POC]	Avg. POC (CHK2) [POC]	Avg. POC (MEK1) [POC]	Avg. POC (FGFR4) [POC]	Avg. POC (MAPKAP-K2) [POC]	Avg. POC (NLK) [POC]	Avg. POC (CAMK2d) [POC]	Avg. POC (Mer) [POC]	Avg. POC (IKKalpha) [POC]	Avg. POC (KIT) [POC]	Avg. POC (MuSK) [POC]	Avg. POC (CAMK4) [POC]	Avg. POC (STK33) [POC]	Avg. POC (Ros) [POC]	Avg. POC (MYLK) [POC]	Avg. POC (DCAMKL2) [POC]	Avg. POC (Flt1) [POC]	SMILES	also measured
110	94.5	148	106	119	100.5	124	137.5	111	119	109.5	141.5	104	103.5	137.5	110.5	106.5	100	157.5	105.5	Cc1c(-c2cnn(C)c2)nn(-c2ccccc2)c1NC(=O)N[C@H]1CCCc2ccccc21 [Example 2, (S)-1-(1′,4-dimethyl-1-phenyl-1H,1′H-3,4′-bipyrazol-5-yl)-3-(1,2,3,4-tetrahydronaphthalen-1-yl)urea]	IC50 [1]: < 100 nM; Avg. POC (CK1_y): 100.5 POC; Avg. POC (PRKG1beta): 122 POC; Avg. POC (CLK3): 108 POC; Avg. POC (MST1): 111.5 POC; Avg. POC (PTK5): 122 POC; Avg. POC (BLK_m): 126 POC; Avg. POC (MSK1): 113.5 POC; Avg. POC (p38delta): 96.5 POC; Avg. POC (TrkB): −2 POC; Avg. POC (IRAK4): 125.5 POC; Avg. POC (Lck): 97.5 POC; Avg. POC (MST2): 110.5 POC
107.5	133.5	122	101.5	92	106.5	119	122.5	115.5	110.5	98	119.5	102.5	98.5	113.5	106.5	97.5	99	169	93	Cc1c(-c2cnn(C)c2)nn(-c2ccccc2)c1NC(=O)NC1CCOc2cc(F)ccc21 (stereo not shown) [Example 12, 1-(1′,4-dimethyl-1-phenyl-1H,1′H-[3,4′-bipyrazol]-5-yl)-3-(7-fluorochroman-4-yl)urea]	IC50 [1]: < 100 nM; Avg. POC (CK1_y): 101 POC; Avg. POC (PRKG1beta): 95.5 POC; Avg. POC (CLK3): 100 POC; Avg. POC (MST1): 92 POC; Avg. POC (PTK5): 100 POC; Avg. POC (BLK_m): 112 POC; Avg. POC (MSK1): 127.5 POC; Avg. POC (p38delta): 99.5 POC; Avg. POC (TrkB): 1 POC; Avg. POC (IRAK4): 95.5 POC; Avg. POC (Lck): 92 POC; Avg. POC (MST2): 106.5 POC
121	126	115.5	106	109	97	123	120	100.5	99.5	98	112.5	94	99.5	121	111	106.5	101	135	104	Cc1c(-c2ccc(=O)n(C)c2)nn(-c2ccccc2)c1NC(=O)NC1CN(CC(F)(F)F)Cc2ccccc21 (stereo not shown) [Example 26, 1-(4-methyl-3-(1-methyl-6-oxo-1,6-dihydropyridin-3-yl)-1-phenyl-1H-pyrazol-5-yl)-3-(2-(2,2,2-trifluoroethyl)-1,2,3,4-tetrahydroisoquinolin-4-yl)urea]	Avg. POC (PRKG1beta): 111.5 POC; Avg. POC (CLK3): 106 POC; Avg. POC (MST1): 102 POC; Avg. POC (PTK5): 110 POC; Avg. POC (BLK_m): 103.5 POC; Avg. POC (MSK1): 114 POC; Avg. POC (p38delta): 102 POC; Avg. POC (TrkB): 1.5 POC; Avg. POC (IRAK4): 102 POC; Avg. POC (Lck): 96.5 POC; Avg. POC (MST2): 111 POC
119.5	122.5	108.5	106.5	112	102	139.5	117.5	125.5	108.5	104	102	94.5	104.5	102	115	97.5	97.5	146	103	COCc1ccc2c(c1)C(NC(=O)Nc1c(C)c(-c3cnn(C)c3)nn1-c1ccccc1)COC2 (stereo not shown) [Example 32, 1-(1′,4-dimethyl-1-phenyl-1H,1′H-[3,4′-bipyrazol]-5-yl)-3-(6-(methoxymethyl)isochroman-4-yl)urea]	IC50 [1]: < 100 nM; Avg. POC (CK1_y): 107.5 POC; Avg. POC (PRKG1beta): 80.5 POC; Avg. POC (CLK3): 109 POC; Avg. POC (MST1): 105.5 POC; Avg. POC (PTK5): 104 POC; Avg. POC (BLK_m): 111 POC; Avg. POC (MSK1): 118 POC; Avg. POC (p38delta): 113.5 POC; Avg. POC (TrkB): −0.5 POC; Avg. POC (IRAK4): 99 POC; Avg. POC (Lck): 104.5 POC; Avg. POC (MST2): 111.5 POC
